Measurements published in a melting point compilation (Tetko et al.; mined from patent text by program, amines drawn as free bases though some values may be those of a salt).

Row | SMILES | melting point
1 | COCCN1CCN(CCc2ccc(Nc3ncc4c(n3)-c3ccccc3C(c3ccccc3C(F)(F)F)C4)cc2)CC1 (stereo not drawn) | 139 to 140 °C
2 | CC(Oc1ccc(Br)cc1)(C(=O)O)c1ccccc1 (stereo not drawn) | 88 to 89 °C
3 | Cc1ccc(-c2coc3c(C)c(O)ccc3c2=O)cc1 | 264 to 267 °C
4 | N#Cc1ccc2ccn3cccc3c(=O)c2c1 | 213 to 217 °C
5 | Cc1cc(Oc2c(Cl)cc(C(F)(F)F)cc2Cl)nn1C(=O)NCCO | 124 to 126 °C
6 | NS(=O)(=O)c1ccc(-n2ccc(C(F)F)n2)c(-c2ccc3c(c2)OCO3)c1 | 214 to 218 °C
7 | OCc1cc2sccc2s1 | 91 to 93 °C
8 | C(=C1CNCCN1)c1ccccc1 | 80 to 81 °C
9 | Cc1cc(C)cc(P(c2ccccc2)c2ccccc2)c1 | 67 to 69 °C
10 | CCCn1cc2c(C3C(=O)Nc4ccc(Br)cc43)nc(NCCC(F)(F)F)nc2n1 (stereo not drawn) | > 300 °C
11 | CN(C)c1cc2c(cc1O)CCC1C2CCC2(C)C(=O)CCC12 (stereo not drawn) | 160 to 161 °C
12 | CCCCCCCCSCN1CN(CSCCCCCCCC)c2cccc3cccc1c23 | 52 to 56 °C
13 | CC12CCC3c4ccc(C(=O)O)cc4CCC3C1CCC2C(=O)C=Cc1ccccc1 (stereo not drawn) | 177 to 181 °C
14 | CC12CCC3C(CCC4CC(O)CCC43C)C1CCC2=S (stereo not drawn) | 172 to 173 °C
15 | COc1cc(OC)cc(-c2ccc(N(C)CCN(C)c3ccc(-c4cc(OC)cc(OC)c4)nc3)cn2)c1 | 139 to 141 °C
16 | O=C1OCc2cc(C(F)(F)F)ccc21 | 71 to 72 °C
17 | CCOc1cc(C(=CC#N)c2ccc(OC)c(-n3cccc3)c2)ccc1OC | 109 to 111 °C
18 | ClCc1cn2cc(Br)ccc2n1 | 125 to 126 °C
19 | O=C1CCCN1[C@@H]1c2cc(C(F)(F)C(F)(F)C(F)(F)F)ccc2OC(CF)(CF)[C@H]1O (relative stereo) | 174 to 175 °C
20 | O=C(c1ccccc1)c1ncc2n1CCC2C(=O)O (stereo not drawn) | 232 to 233 °C
21 | CC1(C)OCC(C(N)=O)CO1 | 132 to 134 °C
22 | O=C(O)c1ccc(Oc2ccccc2Oc2ccc(C(=O)O)cc2)cc1 | 255 to 257 °C
23 | Cn1c([N+](=O)[O-])cnc1-c1nnc2ccc(N=CNC3CCCCC3)nn12 | 198 to 200 °C
24 | COCC(COC)Oc1cc(Oc2ccc(S(C)(=O)=O)nc2)cc2cc(C3=NCC(CCO)S3)[nH]c12 (stereo not drawn) | 69 to 71 °C
25 | CC(=O)/C(=N/O[C@H]1CC[C@H](C(=O)N(C)C)CC1)C(=O)OC(C)(C)C | 109 to 110 °C
26 | COc1cc2cc(C(C)C)sc2c(Cl)c1Cl | < 37 °C
27 | Cn1c(=O)n(CC(=O)O)c(=O)c2cc([N+](=O)[O-])ccc21 | 217 to 220 °C

Row | SMILES | melting point
28 | COc1ccc(-c2nc3ccc(C(C)(C)CNS(C)(=O)=O)cc3[nH]2)cc1 | 146 to 148 °C
29 | CCc1ccc(C(O)COc2ccc(C=O)cc2)nc1 (stereo not drawn) | 80 °C
30 | O=c1cc(-c2nnn[nH]2)occ1-c1ccccc1 | 237 to 238 °C
31 | C#CCc1nc(-c2ccc(C)cc2)oc1C | 65 to 68 °C
32 | COC(=O)CC1CC(c2ccc(C#N)nc2)=NO1 (stereo not drawn) | 115 to 116 °C
33 | O=C(O)c1ccc(-c2nc(-c3ccccc3)co2)cc1 | 275 to 276 °C
34 | O=C(O)c1ccc(F)c(F)c1Nc1ccc(I)cc1Cl | 226 to 227 °C
35 | CC1CC(C)CN(C(=O)c2ccc([N+](=O)[O-])cc2)C1 (stereo not drawn) | 120 to 125 °C
36 | CCOCc1nc2c(N)nc3ccccc3c2n1CCCc1cc(-c2cccnc2)no1 | 199 to 200 °C
37 | Cc1ccccc1N(CC(=O)OC(C)(C)C)C(=O)CN1C(=O)c2ccccc2C1=O | 140 °C
38 | O=c1ccn(-c2cccc(C(F)(F)F)c2)nc1-c1conc1-c1ccccc1 | 217 to 219 °C
39 | CC(=O)c1ccc(Oc2ccc(-c3scc(-c4ccccc4Cl)c3CC(=O)N=C(N)N)cc2)cc1 | 117 to 118 °C
40 | CN(C)C1(c2ccccc2)CCC2(OCCc3c2[nH]c2ccccc32)C(CCO)C1 (stereo not drawn) | 311 to 314 °C
41 | Cc1ccc2nc3c(nc2c1)SC(=C(C#N)C#N)S3 | 265 to 267 °C
42 | CCN1C(=O)NC(Cc2c[nH]c3ccccc23)C1CCc1cc(C(F)(F)F)cc(C(F)(F)F)c1 (stereo not drawn) | 228 to 230 °C
43 | CN(c1ccc(OCc2ccc(OC(F)(F)F)cc2)cc1)C1CCN(c2ccc(OC[C@H]3CCn4cc([N+](=O)[O-])nc4O3)cc2)CC1 | 142 to 144 °C
44 | COC(=O)c1ccccc1-n1c(CCl)nc2ccc(C(F)(F)F)cc2c1=O | 169 to 170 °C
45 | O=C1NCCN1c1ccc(F)cc1N1CCN(C/C=C/c2ccc(Cl)cc2)CC1 | 170 to 172 °C
46 | COC(=O)C1=C(C)NC(C)=C(C(=O)O)C1c1ccccc1Cl (stereo not drawn) | 210 °C
47 | Cc1cc(I)cc(C)c1Oc1ccc([N+](=O)[O-])c(Nc2ccc(C#N)cc2)n1 | 162 to 165 °C
48 | COC(=O)c1ccc(-c2nn(-c3ccc(C(N)=O)cc3)c3ccccc23)cc1 | 267 to 269 °C
49 | COC(=O)c1cccc(S(=O)(=O)Cl)c1C | 46.5 to 50 °C
50 | CC(C)(C)NS(=O)(=O)c1cc(C(=O)O)ccc1C(=O)O | 210 to 213 °C
51 | Cc1cc(-c2ccc(Cl)c(Cl)c2)nc(-n2cnc(-c3ccc(S(N)(=O)=O)s3)c2)n1 | 254 °C
52 | FCCOc1cccc(CBr)c1OCCF | 99 to 100 °C
53 | O=c1c2ccc(Cl)cc2[nH]c2c(O)nn(-c3ccc(O)c(Cl)c3)c(=O)c12 | 350 to 353 °C

The next lines start with the values.

Row | melting point | SMILES
54 | 225 °C | Nc1ccncc1NC(=S)NCCN1CCC(Nc2nc3ccccc3n2Cc2ccc(F)cc2)C1 (stereo not drawn)
55 | 138 to 139 °C | COc1ccc2c(c1)C(=O)c1c-2c(N2CCN(CC3CO3)CC2)nc2ccccc12 (stereo not drawn)
56 | 207 °C | COc1cc2ncnc(-c3nnn[nH]3)c2cc1OC
57 | 146 to 147 °C | Cc1nc(Cl)c(S(C)(=O)=O)c(Cl)n1
58 | 99 to 100 °C | CCN(CC)C(C)CN1CCc2c(c(=O)oc3c(OC)c(OC)ccc23)C1 (stereo not drawn)
59 | 169 to 170 °C | CN(C)CCNC(=O)Cc1ccc(NC(=O)C2CCN(C(=O)OCc3ccccc3)CC2)cc1
60 | 91 to 93 °C | CC(=O)c1cc(C=O)c2occc2c1
61 | 92 to 93 °C | Cc1nc(OCCCc2cc(OC(C)C)nn2Cc2ccc(Cl)cc2Cl)c(CC#N)s1
62 | 144 to 146 °C | CCON=C(CC)C1=C(O)CC(c2ccc3c(c2)NC(=O)C(C)O3)CC1=O (stereo not drawn)
63 | > 280 °C | CNc1c(F)cc2c(=O)c(C(=O)O)cn(-c3ccc(F)c(O)c3)c2c1Cl
64 | 98 °C | O=C(/C=C/c1cccc(C(F)(F)F)c1)NC1CC1
65 | 281 °C | O=C1Nc2ccc(Cl)cc2C1(c1ccccc1)c1ccccc1
66 | 213 to 214 °C | CCCCn1ncc(/C=C(\Cc2cc3c(cc2OC)OCO3)C(=O)O)c1-c1ccc(OC)cc1OCc1ccccc1C(=O)O
67 | 234 to 243 °C | CN(Cc1ccc(NC(=O)C2=Cc3cc(-c4ccc(N5CCOCC5)cc4)ccc3N(C=O)CC2)cc1)C1CCOCC1
68 | 121 to 122 °C | CCOC(=O)COc1cc(Cl)c2c(=O)c(-c3ccc(OC)cc3)coc2c1
69 | 111 to 113 °C | CCCCCc1c(-c2ccc3c(Br)c(OCC#N)ccc3c2)oc2ccccc12
70 | 104 to 105 °C | CCCCCN1C(=O)C(O)(c2ccc3c(c2)OCO3)c2cccnc21 (stereo not drawn)
71 | 227 to 230 °C | Cc1cc(O)ccc1-c1c(C=O)sc(-c2ccc(O)c(F)c2)c1C
72 | 125 to 127 °C | N#Cc1ccc(C(=O)N[C@@H](Cc2c[nH]c3ccccc23)C(=O)O)cc1
73 | 89 to 91 °C | CCOc1ccc(CCCOc2c(CC(=O)O)cccc2OC)c(Oc2ccc(Cl)cc2Cl)n1
74 | 214 to 217 °C | CCOC1=NS(=O)(=O)C(S(C)(=O)=O)=C1N
75 | 234 to 235 °C | O=C(Nc1cncc(Cl)n1)C1=C(O)c2ccccc2S(=O)(=O)N1
76 | 178 to 180 °C | CC1(C)Oc2cc3nonc3cc2C(NC(=O)NCCCl)C1O (stereo not drawn)

Row | melting point | SMILES
77 | 108 to 111 °C | COc1ccccc1OC(=O)c1cnoc1C
78 | 159 to 162 °C | CCc1cc(C(=O)c2ccccc2Cl)c(-n2c(CNC(=O)c3cc4ccccc4n3CC(=O)O)nnc2C2CCCCC2)s1
79 | 89 to 91 °C | COC(=O)[C@H](Cc1ccc(OCCNC(=O)OC(C)(C)C)cc1)NC(=O)OCc1ccccc1
80 | 188 °C | CCCCCCCCCCCCCCCCCC(=O)Nc1ccc(NC(=O)NS(=O)(=O)c2ccc(OC)cc2)cc1
81 | 139 to 140 °C | CC(=O)N1C(=O)C(C(=O)c2cccs2)c2ccccc21 (stereo not drawn)
82 | 89 to 90 °C | COCN1C(C)=C(C(=O)OCOC(=O)C(C)(C)C)C(c2ccccc2)C(C(=O)OCOC(=O)C(C)(C)C)=C1C
83 | 150 to 152 °C | O=C(Nc1ccc2c(c1)CCC2)C(=O)N1CCC(Cc2ccc(F)cc2)CC1
84 | 244 to 245 °C | O=C(O)C1CCc2[nH]c3ccc(Cl)c(Cl)c3c2C1 (stereo not drawn)
85 | 112 to 113 °C | O=C(c1cccnc1)c1ccc(Cl)c([N+](=O)[O-])c1
86 | 93 to 94 °C | CN(Cc1ccc(N)cc1)C1CCOCC1
87 | 131 °C | N#CNC(=Nc1ccncc1)NCCCCOc1ccccc1
88 | 322 to 325 °C | N=C(NO)c1ccc(-c2cccc(-c3nc4cc(C(=N)NO)ccc4[nH]3)c2O)cc1
89 | 65 to 67 °C | CCOC(=O)c1ccc(NCCCCCCCc2ccccc2)cc1
90 | 71 to 74 °C | CCCCOP(=O)(CCCCC1(C(=O)NCC(F)(F)F)c2ccccc2-c2ccccc21)OCCCC
91 | 127 to 135 °C | Cc1noc(NS(=O)(=O)c2ccccc2-c2ccc(-c3ncco3)cc2CN2CCc3ccccc3C2=O)c1C
92 | 202 °C | O=C1CN(C(=O)c2ccc(Cl)cc2)N(Cc2ccc(Cl)cc2)C(=O)N1
93 | 131 to 134 °C | CC1(C)Oc2ccc(C#N)cc2C(Oc2ccc(O)nn2)C1(C)O (stereo not drawn)
94 | 151 to 153 °C | CC1CC(c2ccc(OCC(=O)O)c(Cl)c2Cl)=CC(=O)C1C (stereo not drawn)
95 | 77 to 80 °C | Cc1ccc(S(=O)(=O)Oc2cc(Cl)c(C=O)c(Cl)c2)cc1
96 | 155 to 156 °C | O=C(c1ccc(Cl)cc1)c1ccc(-n2ccnc2)nc1
97 | 232 to 234 °C | CCS(=O)(=O)N1CCN(c2ccc(NC(=O)c3cc(=O)c4cc(OC)cc(N5CCN(C)CC5)c4o3)cc2)CC1
98 | 190 °C | CC(C)(C)OC(=O)CCP(Br)(c1ccccc1)(c1ccccc1)c1ccccc1
